Source: paper PMC11061149, “Protein mimetic 2D FAST rescues alpha synuclein aggregation mediated early and post disease Parkinson’s phenotypes” (Nature Communications, 2024)
“And” between values parts separate entries of the source, which are not always exact repeats. Identical values can stand only once. Each block holds one molecule with its values, some of them ahead of it.

Assays:
[1] = biological target: T1, α-Synuclein (αS) aggregation (Homo sapiens, UniProt P37840); experiment: Thioflavin T (ThT) dye-based αS aggregation assay (de novo); format: biochemical; conditions: for ThT intensity relative to Synuclein alone (=1), Average / ThT intensity relative to Synuclein alone (=1), Trial 1-3: 100 µM αS, four days, equimolar; for ThT intensity relative to Synuclein alone (=1), Trial 1-3 / Relative ThT intensity of αS aggregation: individual trials; for remaining activity at 100 µM: 96 h, pH 6.5, 100 μM αS, 1×PBS pH 6.5, four days, ligand:αS equimolar, read-out: ThT signal/intensity relative to αS alone (100%); for Relative ThT intensity of αS aggregation, Average / Relative ThT intensity of αS aggregation: Synuclein alone about 1; for ThT intensity (raw), individual trials: αS aggregation after four days, NS132 derivatives equimolar (Fig. 2r)
T1 construct: made in house; host or cells: E. coli BL21(DE3)
Procedure: We used a 2D FAST approach in OPs to identify potent antagonists of the aggregation of αS. In this approach, we start with a library of monopyridyls with different functional groups. The library of monopyridyls was synthesized using 2-chloro-6-methyl-3-nitropyridine as a common precursor, which was treated with primary alcohols with diverse side chain functionalities via a one-pot reaction (Fig. 1B, a and see Supplementary information for synthetic details). […] We selected the side chains containing hydrophobic, polar, positively charged, and negatively charged functional groups, which mimic the side chains of the amino acids (Fig. 1C). […] The monopyridyl library was screened against the aggregation of 100 μM αS at an equimolar ratio using Thioflavin T (ThT) dye-based aggregation assay (Fig. 1B, b). […] The chloro-dipyridyl was reacted with a library of primary amines/thiols to synthesize a library of dipyridyls (Fig. 1B, e) using a one-pot reaction. […] However, a few dipyridyls required column chromatography to separate them from the starting material side chains because of their very high boiling point (7 out of 21 dipyridyls required column, Supplementary Fig. 1). […]
Aggregation Kinetics were measured according to a previously described protocol. […] The solutions were placed in a ThermoMixer (Eppendorf, Hamberg, Germany) at 37 °C with constant shaking at 1300 rpm (rpm). At different time points, 5 μL aliquots of each αS solution were added to 95 μL PBS containing 50 μM Thioflavin T (ThT) dye in a Costar black 96 well plate (Corning Inc., Kennebunk, ME). ThT fluorescence intensity was measured (λex = 450 nm and λem = 490 nm) on an Infinite M200PRO plate reader (Tecan, Männedorf, Switzerland), and plotted against time to give a sigmoidal curve typical of amyloid aggregation. For the single point ThT aggregation, 100 μM αS, in the absence and presence of ligands, was aggregated under the described conditions and the ThT fluorescence was reported at 96 h. The reported ThT intensity values are the average of each experiment conducted in triplicate, with the error bars representing the standard deviations or standard error of the mean (s.e.m.) as described in the main manuscript.

[2] = biological target: T2, αS aggregation (Homo sapiens, UniProt P37840); experiment: SDS-PAGE gel shift assay of soluble and insoluble αS fractions; format: biochemical; conditions: for αS band intensity, Total / Total (αS, SDS-PAGE gel shift), Trial 1-3: individual trials; for Total (αS, SDS-PAGE gel shift), Average: average of 3 trials; for Total (αS, SDS-PAGE gel shift), Average / Total (αS, SDS-PAGE gel shift), Trial 1-3: sheet S9D
T2 construct: made in house; host or cells: E. coli BL21(DE3)
Description: The inhibition of αS aggregation by NS41 was also confirmed by TEM images, which show an abundance (Supplementary Fig. 3a) and low amount (Supplementary Fig. 3b) of αS fibers in the absence and presence of NS41, respectively. We used SDS-PAGE (Sodium dodecyl sulfate polyacrylamide gel electrophoresis) as a complementary assay to validate ThT results and to further characterize the antagonist activity of the monopyridyls against αS aggregation. We used a total of four monopyridyls with varying antagonist activity against αS aggregation for the SDS-PAGE assay. The solutions of αS (±monopyridyls) were centrifuged and the soluble and insoluble fractions were subjected to SDS-PAGE analysis as reported earlier (Fig. 2d, Supplementary Fig. 4a, see details in methods section). The band intensities of the gels in SDS-PAGE assay were quantified using ImageJ software. In the absence of ligands, ~12% of αS was found in the soluble fraction and the rest was found in the insoluble fraction (Fig. 2d, Supplementary Fig. 4a, b). In the presence of NS41 at molar ratios of 1:1 and 2:1 (NS41:αS), 48% and 73% of αS protein were found in the soluble fraction, respectively, and the rest of αS protein was found in the insoluble fraction (Fig. 2d, Supplementary Fig. 4a, b). […] The antagonist activity of the monopyridyls corroborated well from both ThT and the SDS-PAGE assays (Fig. 2a–d, Supplementary Fig. 4a, b). The higher the antagonist activity of monopyridyls against αS aggregation, the lower the ThT intensity and the higher the amount of αS remained in the soluble fraction (Fig. 2a–d, Supplementary Fig. 4a, b). […] It is important to note that NS41 contains a carboxyl (COOH) functional group side chain. […] We have also shown in that work that the foldamer binds to the N-terminus of αS because of its negatively charged COOH functional group interaction with the positively charged lysine residues of αS[24]. […] Additionally, we have also shown that the OPs with the COOH functional group are very effective inhibitors of aggregation of other amyloid proteins that contain lysine amino acid via the formation of salt bridges[30]–[34].
An αS solution (100 µM) was prepared in PBS with or without ligands and shaken ([…], 37 °C) until the fluorescence plateaued, as observed using the ThT aggregation assay, indicative of the aggregation of αS as a control (four days for most experiments unless otherwise mentioned). The solutions were separated into soluble and insoluble fractions by centrifugation at 22,000 × g for 20 min. The fractions were diluted in 2×Laemmli protein sample loading buffer (Containing 2.1% SDS, Bio-rad, Hercules, CA), boiled at 95 °C for 5 min, and ran on a 12% Mini-PROTEAN precast protein gel (Bio-rad, Hercules, CA). The gel was visualized using ChemiDoc MP Imaging System (Bio-rad, Hercules, CA) and band intensity was quantified using Image Lab image acquisition and analysis software (Bio-rad, Hercules, CA). Densitometry values were averaged from three technical replicates and reported with the error bars representing their standard deviations.

Compound: Cc1ccc(NC(=O)c2ccc([N+](=O)[O-])c(NCCc3c[nH]c4ccccc34)n2)c(OCC(=O)O)n1 [NS72]
ThT intensity relative to Synuclein alone (=1), Average [1]: 0.08383
ThT intensity relative to Synuclein alone (=1), Trial 1-3 [1]: 0.08532 and 0.05997 and 0.1062

Compound: Cc1ccc(NC(=O)c2ccc(NC(=O)c3ccc([N+](=O)[O-])c(Cl)n3)c(NCC3CCCCC3)n2)c(OCC(=O)O)n1 [NS122]
remaining activity at 100 µM [1]: 30%
Relative ThT intensity of αS aggregation, Average ([1]; sheet S7A): 0.339
Relative ThT intensity of αS aggregation ([1]; sheet S7A): 0.3017 and 0.3699 and 0.3455
ThT intensity (raw), individual trials [1]: 5423 and 5518 and 5332
αS band intensity, Total, Average ([2]; sheet S7B): 100
αS band intensity, Total ([2]; sheet S7B): 101.8 and 101.7 and 96.5

Compound: Cc1ccc(NC(=O)c2ccc(NC(=O)c3ccc([N+](=O)[O-])c(NCC4CCCCC4)n3)c(NCC3CCCCC3)n2)c(OCC(=O)O)n1 [NS126]
ThT intensity relative to Synuclein alone (=1), Average [1]: 0.4588
ThT intensity relative to Synuclein alone (=1), Trial 1-3 [1]: 0.4925 and 0.4832 and 0.4007
remaining activity at 100 µM [1]: 45.9%

Other lines, results leading:

remaining activity at 100 µM [1]: 80%
ThT intensity (raw), individual trials [1]: 15241 and 16712 and 15019
amount of αS in the insoluble fraction ([2]; 100 µM αS, four days, equimolar): 84%
Total (αS, SDS-PAGE gel shift), Average ([2]; NS132-P 0.5 eq.): 0.8767
Total (αS, SDS-PAGE gel shift), Trial 1-3 ([2]; NS132-P 0.5 eq.): 0.83 and 0.85 and 0.95
Total (αS, SDS-PAGE gel shift), Average ([2]; NS132-P 1.0 eq.): 1.02
Total (αS, SDS-PAGE gel shift), Trial 1-3 ([2]; NS132-P 1.0 eq.): 1.069 and 1.01 and 0.98
Compound: Cc1ccc(NC(=O)c2ccc(NC(=O)c3ccc([N+](=O)[O-])c(NCCc4c[nH]c5ccccc45)n3)c(NCC3CCCCC3)n2)c(OCC(=O)OC(C)(C)C)n1 [NS132-P]

ThT intensity relative to Synuclein alone (=1), Average [1]: 0.7268
ThT intensity relative to Synuclein alone (=1), Trial 1-3 [1]: 0.8429 and 0.6915 and 0.6459
Relative ThT intensity of αS aggregation, Average ([1]; sheet S5A): 0.7268
Relative ThT intensity of αS aggregation ([1]; sheet S5A): 0.8429 and 0.6915 and 0.6459
αS band intensity, Total, Average ([2]; sheet S5B): 100
αS band intensity, Total ([2]; sheet S5B): 103.4 and 101 and 95.6
Compound: Cc1ccc(NC(=O)c2ccc([N+](=O)[O-])c(NCCc3ccc(O)cc3)n2)c(OCC(=O)O)n1 [NS160]

ThT intensity relative to Synuclein alone (=1), Average [1]: 0.02443
ThT intensity relative to Synuclein alone (=1), Trial 1-3 [1]: 0.02302 and 0.02387 and 0.02641
remaining activity at 100 µM [1]: 2.7%
Compound: Cc1ccc(NC(=O)c2ccc(NC(=O)c3ccc([N+](=O)[O-])c(NCCc4ccc(O)cc4)n3)c(NCC3CCCCC3)n2)c(OCC(=O)O)n1 [NS168]

ThT intensity relative to Synuclein alone (=1), Average [1]: 0.6644
ThT intensity relative to Synuclein alone (=1), Trial 1-3 [1]: 0.6754 and 0.635 and 0.6826
αS band intensity, Total, Average ([2]; sheet S4B): 100
αS band intensity, Total ([2]; sheet S4B): 97.5 and 99 and 103.5
Compound: Cc1ccc([N+](=O)[O-])c(OCC2CCCCC2)n1 [RD222]
